Assay results reported in patent US6204262A, “1,3-Benzodiazepin-2-ones and 1,3-Benzoxazepin-2-ones useful as HIV reverse transcriptase inhibitors” (DuPont Pharmaceuticals Company, priority 1999, dated 2001).
≈ marks a conversion by molar mass, not a printed value.

Test system: HIV-1 (RF)
Test: Microplate based compound evaluation in HIV-1 infected MT-2 cells (HIV RNA assay)
Type: cell-based
Settings: Human immunodeficiency virus 1, MT2, 72 h; HIV-1 (RF) infected MT-2 cells, 3 days at 37° C.; virus inoculum standardized on ddC; read-out: IC90 value (concentration of compound required to reduce the HIV RNA level by 90%)
Description: Plasmid pDAB 72 containing both gag and pol sequences of BH10 (bp 113-1816) cloned into PTZ 19R was prepared according to Erickson-Viitanen et al. AIDS Research and Human Retroviruses 1989, 5, 577. The plasmid was linearized with Bam HI prior to the generation of in vitro RNA transcripts using the Riboprobe Gemini system II kit (Promega) with T7 RNA polymerase. Synthesized RNA was purified by treatment with RNase free DNAse (Promega), phenol-chloroform extraction, and ethanol precipitation. RNA transcripts were dissolved in water, and stored at -70° C. The concentration of RNA was determined from the A260.
Biotinylated capture probes were purified by HPLC after synthesis on an Applied Biosystems (Foster City, Calif.) DNA synthesizer by addition of biotin to the 5' terminal end of the oligonucleotide, using the biotin-phosphoramidite reagent of Cocuzza, Tet. Lett. 1989, 30, 6287. […]
MT-2 and MT-4 cells were maintained in RPMI 1640 supplemented with 5% fetal calf serum (FCS) for MT-2 cells or 10% FCS for MT-4 cells, 2 mM L-glutamine and 50 μg/mL gentamycin, all from Gibco. […] Infectious titers of HIV-1(RF) stocks were 1-3×10^7 PFU (plaque forming units)/mL as measured by plaque assay on MT-2 cells (see below). […]

IC90: 0.2 µg/mL (≈ 0.947 µM)
SMILES: Nc1ccn([C@H]2CC[C@@H](CO)O2)c(=O)n1 [ddC, 2',3'-dideoxycytidine]
